Data reported in patent US20070027118A1 (priority 2005, published 2007).
Like-named read-outs stand apart in the source and are kept apart here.

Experiments:
11β-hsd-1 enzyme [1] = target: T1, 11β-hsd-1 enzyme (Homo sapiens, UniProt P28845); assay: biochemical
Description: The 11β-hsd-1 assay was performed in a 100 mM Triethanolamine buffer pH 8.0, containing 200 mM NaCl, 0.02% n-dodecyl β-D-maltoside, 5% glycerol, 5 mM β-mercaptoethanol. A typical reaction for the determination of Kiapp values was carried at R.T. in a Corning® u-bottom 96-well plate and is described as follows: 11β-hsd-1 enzyme (5 nM, final concentration) was pre-incubated in the presence of the inhibitor and NADPH (500 μM, final concentration) for at least 30 minutes in the assay buffer. When pre-incubation was completed, the reaction was initiated by adding the regenerating system (2 mM Glucose-6-Phosphate, 1U/mL Glucose-6-Phosphate dehydrogenase, and 6 mM MgCl2, all the concentration reported are final in the assay buffer), and 3H-cortisone (200 nM, final concentration). After 60 minutes, 60 μL of the assay mixture was transferred to a second 96-well plate and mixed with an equal volume of dimethylsulfoxide to stop the reaction. A 15 μL aliquot from the reaction mixture was loaded into a C-18 column (Polaris C18-A, 50×4.6 mm, 5 μ, 180 Angstrom from Varian) connected to an automated High-throughput Liquid Chromatography instrument developed by Cohesive Technologies Inc, of Franklin, Mass. USA, with a β-RAM model 3 Radio-HPLC detector from IN/US, of Tampa, Fla. USA. The substrate and product peaks were separated by using an isocratic mixture of 43:57 methanol to water (v/v) at a flow rate of 1.0 mL/min.
The initial reaction velocities were measured by stopping the reaction at 60 min and by measuring the area of product formation in the absence and the presence of various concentrations of inhibitors. The Kiapp values were determined using the equation for tight-binding inhibitor developed by Morrison, J. F. (Morrison J. F. Biochim BiophysActa. 1969; 185: 269-86).
The radiolabeled [1,2-3H]-cortisone is commercially available from American Radiolabeled Chemicals Inc of St. Louis, Mo. USA. NADPH, Glucose-6-Phosphate, and Glucose-6-Phosphate dehydrogenase were purchased from Sigma®.
(Morrison J. F. Biochim Biophys Acta. 1969; 185: 269-86).

11β-hsd-1 enzyme [2] = target: T1, 11β-hsd-1 enzyme; assay: biochemical; details: for inhibition: read-out: % Inh @ 0.1 mM; for inhibition at 0.1 µM: read-out: % Inh @ 0.1 μM
Description: Percentage of inhibition was determined in a 100 mM Triethanolamine buffer, pH 8.0, 200 mM NaCl, 0.02% n-dodecyl β-D-maltoside and 5 mM β-ME. A typical reaction was carried on a Corning® u-bottom 96-well plate and is described as follows: 11β-hsd-1 enzyme (5 nM, final concentration) was pre-incubated in the presence of the inhibitor and NADPH (500 μM, final concentration) for at least 30 minutes
in the assay buffer. When pre-incubation was completed, the reaction was initiated by adding the regenerating system (2 mM Glucose-6-Phosphate, 1U/mL Glucose-6-Phosphate dehydrogenase, and 6 mM MgCl2, all the concentration reported are final in the assay buffer), and 3H-cortisone (200 nM, final concentration). After 60 minutes, 60 μL of the assay mixture was transferred to a second 96-well plate and mixed with an equal volume of dimethylsulfoxide to stop the reaction. A 15 μL aliquot from the reaction mixture was loaded into a C-18 column (Polaris C18-A, 50×4.6 mm, 5 μ, 180 Angstrom from Varian) connected to an automated High-throughput Liquid Chromatography instrument developed by Cohesive Technologies Inc of Franklin, Mass., with a […] model 3 Radio-HPLC detector from IN/US of Tampa, Fla. The substrate and product peaks were separated by using an isocratic mixture of 43:57 methanol to water (v/v) at a flow rate of 1.0 mL/min.
Percent Inhibition was calculated based on the following equation: (1-(3H-Cortisol peak area in the […] of inhibitor)×100).

T1 sequence (P28845 whole entry, species assumed): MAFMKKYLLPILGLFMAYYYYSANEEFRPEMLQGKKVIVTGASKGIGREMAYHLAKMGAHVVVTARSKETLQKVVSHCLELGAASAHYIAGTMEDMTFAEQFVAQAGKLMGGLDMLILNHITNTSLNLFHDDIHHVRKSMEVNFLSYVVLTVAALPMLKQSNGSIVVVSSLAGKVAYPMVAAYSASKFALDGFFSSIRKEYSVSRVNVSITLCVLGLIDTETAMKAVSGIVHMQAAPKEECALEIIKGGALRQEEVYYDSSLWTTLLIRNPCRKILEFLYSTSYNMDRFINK

Ki (11β-hsd-1 enzyme [1]) [nM]	Molecule	inhibition (11β-hsd-1 enzyme [2]) [%]	other results
–	4-(6-chloro-13-benzoxazol-2- yl)-N-quinolin-2-ylpiperazine- 1-sulfonamide [Example 167]	–	Ki (11β-hsd-1 enzyme [1]; read-out: Klapp, Table 2, 5 nM enzyme, 200 nM 3H-cortisone, 500 μM NADPH): 3.4 nM; % Inh @ 0.1 mM (11β-hsd-1 enzyme [2]; Table 2, inhibitor 0.1 mM as printed): 100%
13	CCc1cccc(NS(=O)(=O)N2CC[C@@H]3CCCC[C@@H]3C2)n1 (racemic) [Example 120, (4aS*8aS*)-N-(6-ethylpyridin-2-yl)octahydro-isoquinoline-2(1H)-sulfonamide]	100	–
4.1	Cc1cc(C)nc(NS(=O)(=O)N2CCN(c3ccc(C(F)(F)F)cn3)CC2)c1 [Example 1, N-(4,6-dimethylpyridin-2-yl)-4-[5-(trifluoromethyl)pyridin-2-yl]piperazine-1-sufonamide]	–	inhibition at 0.1 µM (11β-hsd-1 enzyme [2]): 95.9%
9	CCc1cccc(NS(=O)(=O)N2CCN(c3ccc(C#N)cn3)CC2)n1 [Example 3, 4-(5-cyanopyridin-2-yl)-N-(6-ethylpyridin-2-yl)piperazine-1-sulfonamide]	–	inhibition at 0.1 µM (11β-hsd-1 enzyme [2]): 88.5%
2.1	Cc1cccc(NS(=O)(=O)N2CCN(c3ccc(C(F)(F)F)cn3)CC2)n1 [Example 8]	–	inhibition at 0.1 µM (11β-hsd-1 enzyme [2]): 96.4%
14	Cc1cc(C)nc(NS(=O)(=O)N2CCN(c3ccc(C#N)cn3)CC2)c1 [Example 9]	–	inhibition at 0.1 µM (11β-hsd-1 enzyme [2]): 86.5%
25.5	Cc1cccc(NS(=O)(=O)N2CCc3ccc(S(C)(=O)=O)cc3CC2)n1 [Example 10]	–	inhibition at 0.1 µM (11β-hsd-1 enzyme [2]): 79.9%
2.8	Cc1cccc(NS(=O)(=O)N2CCc3ccccc3CC2)n1 [Example 11]	–	inhibition at 0.1 µM (11β-hsd-1 enzyme [2]): 95.5%
8.6	CS(=O)(=O)c1ccc2c(c1)CCN(S(=O)(=O)Nc1ccc3ccccc3n1)CC2 [Example 12, 7-(Methylsulfonyl)-N-quinolin-2-yl-1,2,4,5-tetrahydro-3H-3-benzazepine-3-sulfonamide]	–	inhibition at 0.1 µM (11β-hsd-1 enzyme [2]; Table 1, inhibitor 0.1 μM): 100%
7.3	N#Cc1ccc(N2CCN(S(=O)(=O)Nc3ccc4ccccc4n3)CC2)nc1 [Example 13]	–	inhibition at 0.1 µM (11β-hsd-1 enzyme [2]): 94.9%
4.8	O=S(=O)(Nc1ccc2ccccc2n1)N1CCN(c2ccc(C(F)(F)F)cn2)CC1 [Example 14]	–	inhibition at 0.1 µM (11β-hsd-1 enzyme [2]): 100%
2	CCOC(=O)Cc1cccc(NS(=O)(=O)N2CCc3ccccc3CC2)n1 [Example 15, Ethyl {6-[(1,2,4,5-tetrahydro-3H-3-benzazepin-3-ylsulfonyl)amino]pyridin-2-yl}acetate]	–	inhibition at 0.1 µM (11β-hsd-1 enzyme [2]): 100%
–	CCc1cccc(NS(=O)(=O)N2CCN(c3nc(C)cc(CC(C)C)n3)CC2)n1 [Example 143, N-(6-ethylpyridin-2-yl)-4-(4-isobutyl-6-methylpyrimidin-2-yl)piperazine-1-sulfonamide]	36.7	–
–	CCc1cccc(NS(=O)(=O)N2CCN(c3ccc(C(=O)NC(C)C)cn3)CC2)n1 [Example 146, 6-(4-{[(6-ethylpyridin-2-yl)amino]sulfonyl)piperazin-1-yl)-N-isopropylnicotinamide]	30.4	–
–	CCc1cccc(NS(=O)(=O)N2CCN(c3ccc(C(=O)N4CCOCC4)cn3)CC2)n1 [Example 147, N-(6-ethylpyridin-2-yl)-4-[5-(morpholin-4-ylcarbonyl)pyridin-2-yl]piperazine-1-sulfonamide]	27.2	–
–	Cc1cccc(NS(=O)(=O)N2CCN(c3nc4ncccc4o3)CC2)n1 [Example 152, N-(6-methylpyridin-2-yl)-4-[13]oxazolo[45-b]pyridin-2-ylpiperazine-1-sulfonamide]	47.6	–
–	O=S(=O)(Nc1ccc2ccccc2n1)N1CCN(c2cnccn2)CC1 [Example 158, 4-pyrazin-2-yl-N-quinolin-2-ylpiperazine-1-sulfonamide]	44.8	–

Ki (11β-hsd-1 enzyme [1]) [nM]	Molecule	inhibition (11β-hsd-1 enzyme [2]) [%]	other results
–	O=S(=O)(Nc1ccc2ccccc2n1)N1CCN(c2ncccc2C(F)(F)F)CC1 [Example 159, N-quinolin-2-yl-4-[3-(trifluoromethyl)pyridin-2-yl]piperazine-1-sulfonamide]	53.4	–
–	O=S(=O)(Nc1ccc2ccccc2n1)N1CCCN(c2ncccn2)CC1 [Example 163, 4-pyrimidin-2-yl-N-quinolin-2-yl-14-diazepane-1-sulfonamide]	10.5	–
–	N#Cc1cccnc1N1CCCN(S(=O)(=O)Nc2ccc3ccccc3n2)CC1 [Example 168, 4-(3-cyanopyridin-2-yl)-N-quinolin-2-yl-14-diazepane-1-sulfonamide]	56.7	–
–	COc1cc2c(nn1)CCN(S(=O)(=O)Nc1ccc3ccccc3n1)CC2 [Example 170, 3-methoxy-N-quinolin-2-yl-5689-tetrahydro-7H-pyridazino[34-d]azepine-7-sulfonamide]	21.2	–
–	CCc1cccc(NS(=O)(=O)N2CCCN(c3ncccn3)CC2)n1 [Example 172, N-(6-ethylpyridin-2-yl)-4-pyrimidin-2-yl-14-diazepane-1-sulfonamide]	60.2	–
–	O=S(=O)(Nc1ccc2ccccc2n1)N1CCOc2ccccc2C1 [Example 174, N-quinolin-2-yl-23-dihydro-14-benzoxazepine-4(5H)-sulfonamide]	57.9	–
–	Cc1cc(CC(C)C)nc(N2CCN(S(=O)(=O)Nc3ccc4ccccc4n3)CC2)n1 [Example 175, 4-(4-isobutyl-6-methyl-pyrimidin-2-yl)-N-quinolin-2-ylpiperazine-1-sulfonamide]	50	–
–	CC(C)NC(=O)c1ccc(N2CCN(S(=O)(=O)Nc3ccc4ccccc4n3)CC2)nc1 [Example 177, N-isopropyl-6-{4-[(quinolin-2-ylamino)sulfonyl]piperazin-1-yl}nicotinamide]	59.4	–
–	Cc1ccc2oc(N3CCN(S(=O)(=O)Nc4ccc5ccccc5n4)CC3)nc2n1 [Example 179, 4-(5-methyl[13]oxazolo[45-b]pyridin-2-yl)-N-quinolin-2-ylpiperazine-1-sulfonamide]	0	–
–	CCc1cccc(NS(=O)(=O)N2CCCN(C(=O)OCc3ccccc3)CC2)n1 [Example 182, benzyl 4-{[(6-ethylpyridin-2-yl)amino]sulfonyl}-14-diazepane-1-carboxylate]	61	–
–	CCc1cccc(NS(=O)(=O)N2CCN(c3cc(C#N)ccn3)CC2)n1 [Example 184, 4-(4-cyanopyridin-2-yl)-N-(6-ethylpyridin-2-yl)piperazine-1-sulfonamide]	16.8	–
–	CCc1cccc(NS(=O)(=O)N2CCN(c3nc4cc(OC)ccc4o3)CC2)n1 [Example 185, N-(6-ethylpyridin-2-yl)-4-(5-methoxy-13-benzoxazol-2-yl)piperazine-1-sulfonamide]	48.9	–
–	CCc1cccc(NS(=O)(=O)N2CCN(c3cc(C)nc(C)c3)CC2)n1 [Example 188, 4-(26-dimethylpyridin-4-yl)-N-(6-ethylpyridin-2-yl)piperazine-1-sulfonamide]	5.5	–
–	CCc1cccc(NS(=O)(=O)N2CCN(c3ccc(C)cc3)C(=O)C2)n1 [Example 189, N-(6-ethylpyridin-2-yl)-4-(4-methylphenyl)-3-oxopiperazine-1-sulfonamide]	24.9	–
–	CCc1cccc(NS(=O)(=O)N2CCc3cc(OC)c(OC)cc3C2)n1 [Example 192, N-(6-ethylpyridin-2-yl)-67-dimethoxy-34-dihydroisoquinoline-2(1H)-sulfonamide]	29.4	–
–	CCc1cccc(NS(=O)(=O)N2CCN(c3cnccn3)CC2)n1 [Example 199, N-(6-ethylpyridin-2-yl)-4-pyrazin-2-ylpiperazine-1-sulfonamide]	31.3	–
–	CCc1cccc(NS(=O)(=O)N2Cc3ccccc3C2)n1 [Example 202, N-(6-ethylpyridin-2-yl)-13-dihydro-2H-isoindole-2-sulfonamide]	2.4	–
